Legend:
[1] = biological target: T1, Glucocorticoid receptor (Homo sapiens, UniProt P04150)
T1 sequence (P04150 whole entry): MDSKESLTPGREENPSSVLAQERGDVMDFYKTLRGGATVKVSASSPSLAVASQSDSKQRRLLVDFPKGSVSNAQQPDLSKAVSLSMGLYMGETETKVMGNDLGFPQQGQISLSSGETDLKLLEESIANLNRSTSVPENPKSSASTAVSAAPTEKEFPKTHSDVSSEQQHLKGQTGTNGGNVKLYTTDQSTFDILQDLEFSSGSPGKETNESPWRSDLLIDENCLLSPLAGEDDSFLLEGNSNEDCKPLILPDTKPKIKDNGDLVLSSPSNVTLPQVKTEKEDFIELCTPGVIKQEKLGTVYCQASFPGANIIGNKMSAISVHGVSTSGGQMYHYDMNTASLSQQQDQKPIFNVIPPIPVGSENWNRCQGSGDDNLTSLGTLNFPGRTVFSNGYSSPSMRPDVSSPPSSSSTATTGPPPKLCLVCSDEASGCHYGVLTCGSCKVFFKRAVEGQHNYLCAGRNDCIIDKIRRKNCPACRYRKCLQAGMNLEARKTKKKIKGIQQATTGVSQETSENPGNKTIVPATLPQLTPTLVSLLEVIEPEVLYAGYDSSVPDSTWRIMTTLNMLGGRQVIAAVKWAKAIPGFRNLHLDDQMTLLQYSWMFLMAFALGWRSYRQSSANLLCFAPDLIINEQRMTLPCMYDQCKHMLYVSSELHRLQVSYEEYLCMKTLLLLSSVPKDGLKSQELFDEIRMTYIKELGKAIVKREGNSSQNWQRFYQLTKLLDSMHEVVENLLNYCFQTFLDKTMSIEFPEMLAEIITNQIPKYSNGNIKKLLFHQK

[2] = biological target: T1, Glucocorticoid receptor; assay type: functional
Description: Inhibition of glucocorticoid receptor Dexamethasone response in reporter gene assay

[3] = biological target: T2, Hepatic sodium/bile acid cotransporter (Rattus norvegicus, UniProt P26435)
T2 sequence (P26435 whole entry): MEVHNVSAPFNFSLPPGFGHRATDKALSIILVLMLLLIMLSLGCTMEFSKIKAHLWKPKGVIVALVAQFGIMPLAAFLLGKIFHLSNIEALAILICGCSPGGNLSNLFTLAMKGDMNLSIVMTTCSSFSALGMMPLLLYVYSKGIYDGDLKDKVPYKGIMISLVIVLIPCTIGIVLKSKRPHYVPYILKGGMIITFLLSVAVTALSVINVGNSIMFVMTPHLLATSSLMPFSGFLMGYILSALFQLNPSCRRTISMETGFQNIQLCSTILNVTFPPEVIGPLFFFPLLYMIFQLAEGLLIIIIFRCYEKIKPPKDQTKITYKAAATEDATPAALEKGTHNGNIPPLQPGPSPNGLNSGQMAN

[4] = biological target: T3, Glucocorticoid receptor (Rattus norvegicus, UniProt P06536); assay type: functional, cell-based; settings: hepatocyte
T3 sequence (P06536 whole entry): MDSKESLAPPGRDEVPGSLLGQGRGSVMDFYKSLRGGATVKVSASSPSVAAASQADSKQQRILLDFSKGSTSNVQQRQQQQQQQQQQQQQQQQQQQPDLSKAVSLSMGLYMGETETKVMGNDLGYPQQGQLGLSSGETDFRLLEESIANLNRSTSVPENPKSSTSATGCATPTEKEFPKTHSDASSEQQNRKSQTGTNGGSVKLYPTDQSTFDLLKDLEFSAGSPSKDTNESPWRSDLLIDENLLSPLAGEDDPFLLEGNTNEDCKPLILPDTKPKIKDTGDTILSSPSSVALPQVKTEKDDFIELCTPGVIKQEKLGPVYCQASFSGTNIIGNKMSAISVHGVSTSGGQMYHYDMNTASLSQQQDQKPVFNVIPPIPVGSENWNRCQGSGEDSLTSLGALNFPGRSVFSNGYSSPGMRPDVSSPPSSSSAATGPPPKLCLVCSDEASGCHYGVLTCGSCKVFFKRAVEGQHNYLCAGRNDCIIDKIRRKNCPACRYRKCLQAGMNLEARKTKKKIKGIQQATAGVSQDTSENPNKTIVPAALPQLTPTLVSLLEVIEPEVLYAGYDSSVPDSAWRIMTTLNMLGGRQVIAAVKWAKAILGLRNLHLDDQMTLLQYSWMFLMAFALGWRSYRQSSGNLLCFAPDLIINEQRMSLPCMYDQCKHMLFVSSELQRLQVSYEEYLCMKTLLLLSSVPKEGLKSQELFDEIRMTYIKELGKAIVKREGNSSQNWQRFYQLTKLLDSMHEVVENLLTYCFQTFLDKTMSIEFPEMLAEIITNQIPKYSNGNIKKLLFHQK

| Compound | IC50 [1] [nM] | IC50 [2] [nM] | IC50 [3] [nM] | IC50 [4] |
| --- | --- | --- | --- | --- |
| Cc1c(NS(C)(=O)=O)cccc1N(Cc1ccccc1)Cc1ccc(Oc2cccc(OCC(=O)NCCO[C@H]3CC[C@@]4(C)[C@@H](C3)C[C@@H](O)[C@@H]3[C@@H]4C[C@H](O)[C@]4(C)[C@@H]([C@H](C)CCC(=O)O)CC[C@@H]34)c2)cc1 | 57 | 590 |  |  |
| Cc1c(NS(C)(=O)=O)cccc1N(Cc1ccccc1)Cc1ccc(Oc2cccc(CCCC(=O)NCCO[C@@H]3CC[C@]4(C)[C@H](C3)C[C@H](O)[C@@H]3[C@@H]4C[C@@H](O)[C@]4(C)[C@H]3CC[C@H]4[C@@H](C)CCC(=O)O)c2)cc1 | 62 | 390 |  |  |
| Cc1c(NS(C)(=O)=O)cccc1N(Cc1ccccc1)Cc1ccc(CCC(=O)NCCO[C@H]2CC[C@@]3(C)[C@@H](C2)C[C@@H](O)[C@@H]2[C@@H]3C[C@H](O)[C@]3(C)[C@@H]([C@H](C)CCC(=O)O)CC[C@@H]23)cc1 | 560 | 310 |  |  |
| Cc1c(NS(C)(=O)=O)cccc1N(Cc1ccccc1)Cc1ccc(Oc2ccc(CCCC(=O)NCCO[C@H]3CC[C@@]4(C)[C@@H](C3)C[C@@H](O)[C@@H]3[C@@H]4C[C@H](O)[C@]4(C)[C@@H]([C@H](C)CCC(=O)O)CC[C@@H]34)cc2)cc1 | 50 |  |  |  |

More lines, now with the values ahead:

| IC50 [1] [nM] | IC50 [2] [nM] | IC50 [3] [nM] | IC50 [4] | Compound |
| --- | --- | --- | --- | --- |
| 17 | 450 | 4 | Not Active | Cc1c(NS(C)(=O)=O)cccc1N(Cc1ccccc1)Cc1ccc(Oc2ccc(CCC(=O)NCCO[C@@H]3CC[C@]4(C)[C@H](C3)C[C@H](O)[C@@H]3[C@@H]4C[C@@H](O)[C@]4(C)[C@H]3CC[C@H]4[C@@H](C)CCC(=O)O)cc2)cc1 |
| 270 |  |  |  | Cc1c(NS(C)(=O)=O)cccc1N(Cc1ccc(Oc2ccc(CCC(=O)NCCO[C@@H]3CC[C@]4(C)[C@H](C3)C[C@H](O)[C@@H]3[C@@H]4C[C@@H](O)[C@]4(C)[C@H]3CC[C@H]4[C@@H](C)CCC(=O)O)cc2)cc1)Cc1ccc(F)cc1F |
| 260 |  |  |  | Cc1c(NS(C)(=O)=O)cccc1N(Cc1ccc(CCCC(=O)NCCO[C@@H]2CC[C@]3(C)[C@H](C2)C[C@H](O)[C@@H]2[C@@H]3C[C@@H](O)[C@]3(C)[C@H]2CC[C@H]3[C@@H](C)CCC(=O)O)cc1)Cc1ccc(Oc2ccccc2)cc1 |
| 93 |  |  |  | Cc1c(NS(C)(=O)=O)cccc1N(Cc1ccc(Oc2ccccc2)cc1)Cc1cccc(CCCC(=O)NCCO[C@H]2CC[C@@]3(C)[C@@H](C2)C[C@@H](O)[C@@H]2[C@@H]3C[C@H](O)[C@]3(C)[C@@H]([C@H](C)CCC(=O)O)CC[C@@H]23)c1 |

From ChEMBL document CHEMBL1137149, “Bile acid conjugates of a nonsteroidal glucocorticoid receptor modulator” (Bioorg Med Chem Lett, 2004)
